This passage reports CC50 and IC50 results from patent US20250319046A1, “PHENYLALANINE-BASED LAT1 INHIBITORS AND USES THEREOF” (MAXYMUNE THERAPEUTICS, INC., priority 2024, published 2025).

Where a name gives a salt, the structure may show the parent alone. Read-outs that look alike come from different tables or passages of the source.

One data set concerns LN229 cells. The experiment in a line: Amino acid starvation assay: antiproliferation assay with LN229 cells (CellTiter-Glo). The note with it: F12K medium, six days. The format is cell-based. On the procedure:
Amino Acid Starvation Assay
The ability of compounds to inhibit amino acid uptake interact with LAT1 was measured using an antiproliferation assay with LN229 cells (ATCC®). LN229 cells were cultured in DMEM medium (VWR International). Two (2)×10^3 (2,000) cells/well were plated in clear bottom 96-well plates (CellBIND®, Corning 3340) and were allowed to attach overnight. The next day, cells were washed once with PBS buffer (VWR International). F12K medium ([…]) (VWR International) with increasing concentrations of test compounds in at least triplicate was added. Cells were incubated for six (6) days at 37° C. and 5% CO2. At end of the assay, 140 μL of supernatant medium were removed from each well and 60 μL of CellTiter-Glo® (Promega) were added. Cell lysis was induced by placing the plates for three (3) minutes on an orbital shaker. Plates were incubated for 10 min at 25° C. to stabilize the luminesce signal. Luminescence was recorded using an EnSpire® Multimode Plate Reader (Perkin Elmer). Background (luminescence from wells incubated in the presence of 100 µM of commercial LAT1 inhibitor JPH203 (MedKoo) was subtracted, and data were normalized to the DMSO control (proliferation in the absence of any competitor). Data were fitted to the Michaelis-Menten equation using GraphPad Prism (Version 8.2.0).
In general terms: ATP-based viability assays read luminescence as a measure of living cells.

A further data set has as its target LAT1 (Homo sapiens (Human), UniProt Q01650). The data set is described as follows: LAT1 uptake inhibition assay: [3H]-gabapentin competition uptake in LN229 cells. The class given is cell-based. The note with it: [3H]-gabapentin uptake. On the procedure:
LAT1 Uptake Inhibition Assay
The ability of compounds to interact with LAT1 was measured using a radiolabeled competition uptake assay with [^3H]-Gabapentin ([^3H]-GP) (Perkin Elmer) in 96-well plates with LN229 cells (ATCC®). Ten (10)×10^3 (10,000) cells/well were plated in white, clear bottom plates and were allowed to grow for three (3) days. On the fourth day, the cells were washed and then incubated with 50,000 counts per minute (cpm) of [^3H]-GP in phosphate buffered saline (PBS) (VWR International) with increasing concentrations of test compounds in at least triplicate for 15 min. At end of the assay time, the incubation solution was removed, and plates were washed three times (3×) with 100 μL of ice-cold PBS buffer. One-hundred fifty (150) […] of scintillation fluid (VWR International) was added to each well, and the radioactivity retained within the cells was measured on a 96-well scintillation counter. Background uptake ([^3H]-GP uptake in the presence of 10 mM non-radiolabeled gabapentin (GP)) (MedKoo) was subtracted and data were normalized to the DMSO control ([^3H]-GP uptake in the absence of any competitor). Data were fitted to the Michaelis-Menten equation using GraphPad Prism (Version 8.2.0).

[1] abbreviates: Homo sapiens, LN-229, 144 h, Table 1, read-out: Anti-proliferation LC50 (μM ± SE).
[2] abbreviates: Homo sapiens, LN-229, 144 h, read-out: LC50, the concentration of test compound at which the proliferation was inhibited by 50%.
Where [3] appears, read: 15 min incubation in PBS, read-out: IC50, the concentration of test compound at which the [3H]-GP uptake was inhibited by 50%.
Where [4] appears, read: Table 1, read-out: LAT1 inhibition IC50 (nM ± SE).

Sequence of LAT1 (Q01650 whole entry): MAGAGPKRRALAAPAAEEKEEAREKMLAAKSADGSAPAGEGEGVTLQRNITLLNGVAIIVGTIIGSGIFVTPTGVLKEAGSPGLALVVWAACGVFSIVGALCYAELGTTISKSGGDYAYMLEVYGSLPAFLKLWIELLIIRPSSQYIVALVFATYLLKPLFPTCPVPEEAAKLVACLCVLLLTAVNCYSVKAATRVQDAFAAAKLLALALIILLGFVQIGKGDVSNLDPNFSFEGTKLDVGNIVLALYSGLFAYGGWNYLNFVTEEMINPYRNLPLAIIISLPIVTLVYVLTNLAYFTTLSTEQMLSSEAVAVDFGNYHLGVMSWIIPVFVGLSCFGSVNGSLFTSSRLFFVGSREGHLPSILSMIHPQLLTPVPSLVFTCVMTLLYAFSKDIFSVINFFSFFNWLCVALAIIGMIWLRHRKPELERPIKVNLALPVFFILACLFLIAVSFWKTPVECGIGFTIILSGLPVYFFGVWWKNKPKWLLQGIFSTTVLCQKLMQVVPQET
Sequence of LAT1 (P08195 whole entry partner): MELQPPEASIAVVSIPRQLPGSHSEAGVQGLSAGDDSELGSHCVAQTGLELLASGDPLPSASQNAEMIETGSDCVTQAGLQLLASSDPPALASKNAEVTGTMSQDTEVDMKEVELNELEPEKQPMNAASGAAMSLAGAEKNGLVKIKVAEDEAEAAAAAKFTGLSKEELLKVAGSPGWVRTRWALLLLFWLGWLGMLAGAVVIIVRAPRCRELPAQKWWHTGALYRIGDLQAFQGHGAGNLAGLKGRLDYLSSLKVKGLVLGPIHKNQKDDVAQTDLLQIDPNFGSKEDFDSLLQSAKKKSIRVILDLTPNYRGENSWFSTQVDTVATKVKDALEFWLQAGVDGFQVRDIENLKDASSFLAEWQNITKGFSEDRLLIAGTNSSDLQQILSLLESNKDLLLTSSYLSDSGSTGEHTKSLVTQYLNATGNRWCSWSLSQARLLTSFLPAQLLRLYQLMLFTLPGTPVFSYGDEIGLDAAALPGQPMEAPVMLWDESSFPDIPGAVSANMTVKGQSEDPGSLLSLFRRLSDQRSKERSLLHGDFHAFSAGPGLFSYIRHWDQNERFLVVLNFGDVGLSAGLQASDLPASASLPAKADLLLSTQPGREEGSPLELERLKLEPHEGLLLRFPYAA

Regarding `Cc1ccc(NS(=O)(=O)c2cccc(Br)c2)cc1C[C@H](N)C(=O)O` [Compound 29, (S)-2-Amino-3-(5-((3-bromophenyl)sulfonamido)-2-methylphenyl)propanoic Acid], the CC50 is 90 ± 30 µM in the data set on LN229 cells (setting [1]) and 30 to 100 µM in the data set on LN229 cells (setting [2]). In addition, the figures for the IC50 on LAT1 (setting [3]) and at LAT1 (setting [4]) were 20 to 100 nM and 40 ± 10 nM, respectively.

As to `Cc1ccc(S(=O)(=O)NC2CCCCC2)cc1C[C@H](N)C(=O)O` [Compound 53, (S)-2-Amino-3-(5-(N-cyclohexylsulfamoyl)-2-methylphenyl)propanoic Acid], the CC50 is 100 ± 10 µM in the data set with LN229 cells (setting [1]) and ≥ 100 µM in the data set with LN229 cells (setting [2]). The IC50 on LAT1 (setting [3]) is 20 to 100 nM; on LAT1 (setting [4]) it was 60 ± 10 nM.

Regarding `Cc1ccc(S(=O)(=O)Nc2ccc(Cl)cc2)cc1C[C@H](N)C(=O)OC(C)(C)C` [Compound 82, tert-Butyl (S)-2-amino-3-(5-(N-(4-chlorophenyl)sulfamoyl)-2-methylphenyl)propanoate], the CC50 with LN229 cells (setting [2]) is ≥ 100 µM. In addition, the IC50 on LAT1 (setting [3]) was 20 to 100 nM.

Turning to `CC(C)c1ccc(S(=O)(=O)Nc2ccc(Cl)cc2)cc1C[C@H](N)C(=O)O` [Compound 86, (S)-2-Amino-3-(5-(N-(4-chlorophenyl)sulfamoyl)-2-isopropylphenyl)propanoic Acid], the CC50 in the data set with LN229 cells (setting [1]) was 4 ± 0.7 µM; in the data set on LN229 cells (setting [2]), < 30 µM. Besides, the IC50 on LAT1 (setting [3]) is ≤ 20 nM; at LAT1 (setting [4]), 10 ± 1 nM.

On to `Cc1ccc(S(=O)(=O)NCc2ccccc2)cc1C[C@H](N)C(=O)O` [Compound 30, (S)-2-Amino-3-(5-(N-benzylsulfamoyl)-2-methylphenyl)propanoic Acid], for which the results for the CC50 with LN229 cells (setting [1]) and in the data set with LN229 cells (setting [2]) were 38 ± 2 µM and 30 to 100 µM, respectively. In addition, the IC50 at LAT1 (setting [3]) is ≤ 20 nM; on LAT1 (setting [4]), 20 ± 4 nM.

Turning to `Cc1ccc(S(=O)(=O)Nc2ccc(-c3ccccc3)cc2)cc1C[C@H](N)C(=O)O` [Compound 40, (S)-3-(5-(N-([1,1′-Biphenyl]-4-yl)sulfamoyl)-2-methylphenyl)-2-aminopropanoic Acid], the CC50 was 60 ± 20 µM in the data set on LN229 cells (setting [1]) and 30 to 100 µM in the data set on LN229 cells (setting [2]). Also, the figures for the IC50 on LAT1 (setting [3]) and at LAT1 (setting [4]) were 20 to 100 nM and 25 ± 8 nM, respectively.

Regarding `Cc1ccc(NS(=O)(=O)c2cccc(-c3ccccc3)c2)cc1C[C@H](N)C(=O)O` [Compound 38, (S)-3-(5-([1,1′-Biphenyl]-3-sulfonamido)-2-methylphenyl)-2-aminopropanoic Acid], the results for the CC50 in the data set on LN229 cells (setting [1]) and in the data set on LN229 cells (setting [2]) were 52 ± 2 µM and 30 to 100 µM, respectively. The IC50 on LAT1 (setting [3]) is 20 to 100 nM; on LAT1 (setting [4]), 40 ± 10 nM.

For the compound `Cc1ccc(S(=O)(=O)Nc2cccc3c(N(C)C)cccc23)cc1C[C@H](N)C(=O)O` [Compound 49, (S)-2-Amino-3-(5-(N-(5-(dimethylamino)naphthalen-1-yl)sulfamoyl)-2-methylphenyl)propanoic Acid], the CC50 in the data set on LN229 cells (setting [1]) is 100 ± 10 µM; in the data set on LN229 cells (setting [2]) it was ≥ 100 µM. Further, the IC50 was 20 to 100 nM at LAT1 (setting [3]) and 80 ± 20 nM on LAT1 (setting [4]).

With `CCCCNS(=O)(=O)c1ccc(C)c(C[C@H](N)C(=O)O)c1` [Compound 41, (S)-2-Amino-3-(5-(N-butylsulfamoyl)-2-methylphenyl)propanoic Acid], the results for the CC50 with LN229 cells (setting [1]) and in the data set with LN229 cells (setting [2]) were 36 ± 10 µM and 30 to 100 µM, respectively. Besides, the results for the IC50 at LAT1 (setting [3]) and on LAT1 (setting [4]) were 20 to 100 nM and 56 ± 9 nM, respectively.

On to `Cc1ccc(S(=O)(=O)Nc2ccc(Cl)cc2)cc1C[C@H](N)C(=O)O` [Compound 52, (S)-2-Amino-3-(5-(N-(4-chlorophenyl)sulfamoyl)-2-methylphenyl)propanoic Acid], for which the CC50 in the data set on LN229 cells (setting [1]) was 9.7 ± 0.7 µM; in the data set on LN229 cells (setting [2]), < 30 µM. Further, the IC50 on LAT1 (setting [3]) is ≤ 20 nM; on LAT1 (setting [4]), 12 ± 2 nM.

Take `N[C@@H](Cc1cccc(S(=O)(=O)Nc2ccc(Cl)cc2)c1)C(=O)O` [Compound 79, (S)-2-Amino-3-(3-(N-(4-chlorophenyl)sulfamoyl)phenyl)propanoic Acid]: the CC50 was 100 ± 20 µM with LN229 cells (setting [1]) and ≥ 100 µM in the data set with LN229 cells (setting [2]). Moreover, the IC50 is 20 to 100 nM at LAT1 (setting [3]) and 80 ± 10 nM on LAT1 (setting [4]).

For the compound `Nc1cc(COc2c(Cl)cc(C[C@H](N)C(=O)O)cc2Cl)c2oc(-c3ccccc3)nc2c1` [JPH203, (S)-2-Amino-3-(4-((5-amino-2-phenylbenzo[d]oxazol-7-yl)methoxy)-3,5-dichlorophenyl)propanoic Acid, reference compound], the CC50 in the data set on LN229 cells (setting [2]) was 20 ± 10 µM. The IC50 at LAT1 (read-out: IC50 in the LAT1 uptake inhibition assay) was found to be 19 ± 6 nM.

On to `Cc1ccc(NS(=O)(=O)c2ccccc2)cc1C[C@H](N)C(=O)O` [Compound 10, (S)-2-Amino-3-(2-methyl-5-(phenylsulfonamido)phenyl)propanoic Acid], for which the CC50 was 70 ± 20 µM in the data set on LN229 cells (setting [1]) and 30 to 100 µM in the data set on LN229 cells (setting [2]). For the same compound, the IC50 at LAT1 (setting [3]) is 20 to 100 nM; at LAT1 (setting [4]), 100 ± 40 nM.

Regarding `Cc1ccc(S(=O)(=O)Nc2cccc3ccccc23)cc1C[C@H](N)C(=O)O` [Compound 39, (S)-2-Amino-3-(2-methyl-5-(N-(naphthalen-1-yl)sulfamoyl)phenyl)propanoic Acid], the CC50 in the data set with LN229 cells (setting [1]) is 32 ± 2 µM; in the data set with LN229 cells (setting [2]) it was 30 to 100 µM. In addition, the IC50 was 20 to 100 nM at LAT1 (setting [3]) and 24 ± 9 nM at LAT1 (setting [4]).

Take `Cc1ccc(S(=O)(=O)Nc2cccc(Br)c2)cc1C[C@H](N)C(=O)O` [Compound 76, (S)-2-Amino-3-(5-(N-(3-bromophenyl)sulfamoyl)-2-methylphenyl)propanoic Acid]: the CC50 was 11 ± 1 µM in the data set with LN229 cells (setting [1]) and < 30 µM in the data set with LN229 cells (setting [2]). Besides, the IC50 on LAT1 (setting [3]) is ≤ 20 nM; on LAT1 (setting [4]), 9 ± 3 nM.

Turning to `Cc1ccc(NS(=O)(=O)c2ccc(C(C)(C)C)cc2)cc1C[C@H](N)C(=O)O` [Compound 87, (S)-2-Amino-3-(5-((4-(tert-butyl)phenyl)sulfonamido)-2-methylphenyl)propanoic Acid], the CC50 in the data set on LN229 cells (setting [1]) is 100 ± 20 µM; in the data set on LN229 cells (setting [2]) it was ≥ 100 µM. In addition, the IC50 at LAT1 (setting [3]) is 20 to 100 nM; on LAT1 (setting [4]), 100 ± 20 nM.

For `COc1ccc(NS(=O)(=O)c2ccc(C)c(C[C@H](N)C(=O)O)c2)cc1` [Compound 44, (S)-2-Amino-3-(5-(N-(4-methoxyphenyl)sulfamoyl)-2-methylphenyl)propanoic Acid], the values for the CC50 in the data set on LN229 cells (setting [1]) and in the data set with LN229 cells (setting [2]) were 20 ± 6 µM and < 30 µM, respectively. In addition, the IC50 at LAT1 (setting [3]) is ≤ 20 nM; at LAT1 (setting [4]), 10 ± 3 nM.

Take `Cc1ccc(S(=O)(=O)Nc2ccc(Br)cc2)cc1C[C@H](N)C(=O)O` [Compound 77, (S)-2-Amino-3-(5-(N-(4-bromophenyl)sulfamoyl)-2-methylphenyl)propanoic Acid]: the values for the CC50 in the data set with LN229 cells (setting [1]) and in the data set with LN229 cells (setting [2]) were 13 ± 1 µM and < 30 µM, respectively. The IC50 was ≤ 20 nM at LAT1 (setting [3]) and 12 ± 4 nM at LAT1 (setting [4]).

Take `Cc1ccc(S(=O)(=O)Nc2ccccc2)cc1C[C@H](N)C(=O)O` [Compound 35, (S)-2-Amino-3-(2-methyl-5-(N-phenylsulfamoyl)phenyl)propanoic Acid Hydrochloride]: in the data set on LN229 cells (Table 1, read-out: Anti-proliferation LC50 (μM ± SE)), the CC50 stood at 40 ± 10 µM. Also, the IC50 at LAT1 (setting [4]) came to 30 ± 8 nM.
